This test relates to white adipose tissue (WAT). Put plainly: Inflammation, lipolysis and browning of white adipose tissue in Fex-treated DIO mice. It counts as in vivo. As to the method:
Mice were fed on HFD for 14 weeks and subsequently subjected to daily PO injection of vehicle or fexaramine (100 mg/kg) for 5 weeks with HFD. In the bar graphs, open bars are vehicle, solid bars of fexaramine, and data represent the mean±STD. Statistical analysis was performed with the Student's t test (*p<0.05, **p<0.01).
FIG. 12F is a bar chart showing serum glycerol levels in vehicle or fexaramine-treated mice. Isoproterenol (1 μg/kg) was injected at 0 minutes and free glycerol levels were measured at the indicated time points. Data represent the mean±STD. Statistical analysis was performed with the Student's t test (*p<0.05, **p<0.01).
Mice fed a HFD for 14 weeks were maintained on a HFD and treated with vehicle or fexaramine (100 mg/kg/day os for 5 week). (I) Changes in genes associated with the browning of adipose tissue and (J) oxygen consumption rate of the stromal vascular fraction (SVF) from inguinal fat (iWAT). Data represent the mean±SD. Statistical analysis was performed with the Student's t test. *p<0.05, **p<0.01.
FIG. 13 is a set of digital images of gel electrophoreses (Western blots) showing the level of expression of various proteins in gonadal white adipose tissue (gWAT). Mice fed a HFD for 14 weeks were maintained on a HFD and treated with vehicle or fexaramine (50 mg or 100 mg/kg/day os for 5 week).
FIG. 14 is a bar chart showing that fexaramine reduces brown adipose tissue (BAT) inflammation. Mice fed a HFD for 14 weeks were maintained on a HFD and treated with vehicle or fexaramine (100 mg/kg/day os for 5 weeks). Expression of inflammatory cytokines in BAT. Data represent the mean±SD. Statistical analysis was performed with the Student's t test. *p<0.05, **p<0.01.
During obesity, adipose tissue expands by hyperplastic and/or hypertrophic growth, is chronically inflamed, and produces inflammatory cytokines that ultimately contribute to systemic metabolic dysregulation. […] These noncanonical IκB kinases were recently shown to play crucial roles in energy expenditure as a consequence of adipose tissue inflammation upon diet-induced obesity (Reilly et al., Nat Med 19:313-321, 2013).
Brown adipose-driven adaptive thermogenesis is fueled by mitochondrial oxidation of free fatty acids (FFAs) released from triglyceride stores into the circulation, predominantly by the action of hormone-sensitive lipase (HSL).

Structures are written as SMILES.

Experimental findings from patent US20150258052A1, “METHODS OF USING FEXARAMINE AND AGENTS THAT INCREASE SYMPATHETIC NERVOUS SYSTEM ACTIVITY TO PROMOTE BROWNING OF WHITE ADIPOSE TISSUE” (Salk Institute for Biological Studies, priority 2014, published 2015) are described below.

With `COC(=O)/C=C/c1cccc(N(Cc2ccc(-c3ccc(N(C)C)cc3)cc2)C(=O)C2CCCCC2)c1` [Fex, fexaramine], where the note is “100 mg/kg PO 5 weeks”, the “abundance of multi-locular, UCP1-expressing adipocytes in inguinal adipose tissue (immunohistochemistry)” value is listed as “substantial increase”; the “expression of TNFα, MCP-1, IL-1α and macrophage marker F4/80 in visceral and brown adipose depots” value was “reduced in visceral and brown adipose depots”. Also, under “100 mg/kg/day 5 week”, the “expression of "brown fat-like" signature genes in inguinal adipose tissue” value is “increased the expression” and the “respiratory capacity (oxygen consumption rate) of stromal vascular fraction from inguinal adipose tissue” value is “increased respiratory capacity”. Further, under “Western blot”, the “S6K phosphorylation (mTORC1 pathway) in gonadal WAT” value is listed as “reduced S6K phosphorylation”; the “levels of IKK-ε and TANK-binding kinase 1 (TBK1) in gWAT” value is given as “reduced levels”. Where the note is “chronic Fex treatment”, the “HSL phosphorylation in adipose depots” value is recorded as “pronounced increase”, the serum catecholamine levels result is “increased serum catecholamine levels”, the “serum levels of free fatty acids” value is given as “pronounced increase” and the “β3-adrenergic receptor expression in gonadal adipose tissue” value is recorded as “increased”. Besides, the “cross-sectional area of adipocytes in visceral depots (gonadal and mesenteric)” value (chronic Fex-treatment) was “markedly reduced”.
